Measurements as given in paper doi:10.1101/2022.02.09.479090v1 (biorxiv, 2022).
Read-outs that look alike come from different tables or passages of the source. One block for each molecule: values may come before it.

Experiments:
[1] = target: T1, RLuc8 (Renilla reniformis, UniProt P27652, A143M/A55T/C124A/K136R/M185V/M253L/S130A/S287L); experiment: biochemical
[2] = target: AncFT; experiment: anaerobic fluorescence titration; parameters: species or system synthetic construct; details: 100 mM potassium phosphate pH 7.5, 30 °C
[3] = test system: AncFT; experiment: luminescence progress curves, global numerical fit; assay type: biochemical, synthetic construct; details: O2 co-substrate; 100 mM phosphate pH 7.5, 37 °C
[4] = target: AncFT; experiment: anaerobic fluorescence titration; parameters: species or system synthetic construct; details: 100 mM potassium phosphate pH 7.5, 30 °C; remark: listed apart in the source
[5] = target: T1, RLuc8; experiment: biochemical; remark: listed apart in the source
[6] = target: T1, RLuc8; experiment: biochemical; remark: listed apart in the source
[7] = target: AncFT; experiment: luminescence progress curves, global numerical fit; assay type: biochemical, synthetic construct; details: competitive versus coelenterazine; 100 mM phosphate pH 7.5, 37 °C
[8] = substrate: Oc1ccc(Cc2nc3c(Cc4ccccc4)nc(-c4ccc(O)cc4)cn3c2O)cc1; experiment: purified protein; details: O2 co-substrate, 100 mM phosphate pH 7.5, 37 °C

- Kd [1]: 22 ± 2 µM
- Kd [2]: 16 ± 2 µM
Molecule: O=C(Cc1ccc(O)cc1)Nc1ncc(-c2ccc(O)cc2)nc1Cc1ccccc1 [CEI, coelenteramide]

- Km [3]: 0.042 µM
- Kd [4]: 12 ± 5 µM
- Kd [5]: 37 ± 15 µM
Molecule: Oc1ccc(Cc2nc3c(Cc4ccccc4)nc(-c4ccc(O)cc4)cn3c2O)cc1 [CTZ, 2-(p-hydroxybenzyl)-6-(p-hydroxyphenyl)-8-benzylimidazo [1,2-a]pyrazine-3-(7H)-one]

- Ki [6]: 16.1 µM
- Ki [7]: 0.092 ± 0.002 µM
Molecule: O=c1n(Cc2ccc(O)cc2)nc2c(Cc3ccccc3)nc(-c3ccc(O)cc3)cn12 [azaCTZ, 8-Benzyl-2-(4-hydroxybenzyl)-6-(4-hydroxyphenyl)-[1,2,4]triazolo[4,3-a]pyrazin-3(2H)-one]

B1: RLuc8 (Renilla reniformis; A143M/A55T/C124A/K136R/M185V/M253L/S130A/S287L) (protein)
chain: MTSKVYDPEQRKRMITGPQWWARCKQMNVLDSFINYYDSEKHAENAVIFLHGNATSSYLWRHVVPHIEPVARCIIPDLIGMGKSGKSGNGSYRLLDHYKYLTAWFELLNLPKKIIFVGHDWGAALAFHYAYEHQDRIKAIVHMESVVDVIESWDEWPDIEEDIALIKSEEGEKMVLENNFFVETVLPSKIMRKLEPEEFAAYLEPFKEKGEVRRPTLSWPREIPLVKGGKPDVVQIVRNYNAYLRASDDLPKLFIESDPGFFSNAIVEGAKKFPNTEFVKVKGLHFLQEDAPDEMGKYIKSFVERVLKNEQ
- Km [8]: 1.66 µM
